Results from US10066212B2, “Method for preparing induced pluripotent stem cells using synthetic peptide” (Seoul National University R&DB Foundation, priority 2015, dated 2018).

Tests used:
Format in all cases: cell-based
[1] = tested on: human dermal fibroblasts (hDF) introduced with reprogramming genes; assay: Colony number of induced pluripotent stem cells by alkaline phosphatase (AP) staining; details: for dedifferentiation induction, graph counting and quantifying the number of colonies / AP-stained colonies: 10 μM peptide, 10 days at 24-hr intervals, FIG. 1; for AP-stained colonies: compared with cells without peptide and control peptides C1 or C2; for AP staining clarity: group treated with peptide, reported with FIG. 2
Source text: In order to verify the dedifferentiation induction efficiency of each peptide, the DNAs of reprogramming genes Oct3/4, Sox2, c-Myc, Klf4, and Lin28 were introduced to human dermal fibroblasts (hDF) of 1.5×10^5/well on a 6-well coated with […] of vitronectin recombinant human protein (VTN-N) by an electroporation method. According to a known method, the reprogramming genes were divided into three groups and cloned into three different episomal vectors and expressed together with p53 shRNA(pCXLE-hOCT3/4-shp53, pCXLE-hSK, and pCXLE-hUL) to enhance the establishment efficiency of dedifferentiation of stem cells (Okita, K. et al., Nat. Methods. 8(5):409-12, 2011). The cells introduced with the reprogramming genes were cultured in an Eagle's minimal essential medium (EMEM, ATCC) and the medium was replaced at 24-hr intervals until cell confluency became 50%. When the confluency became 50%, 10 μM of a dedifferentiation induction-promoting peptide and a control peptide were treated, respectively, and the medium was replaced with Essential 8 Medium and the peptides were treated at the same time as the medium replacement every 24 hrs. The peptide was treated for 10 days at 24-hr intervals, and in order to verify dedifferentiation efficiency per peptide, alkaline phosphatase (AP), known as a marker of embryonic stem cells, was used. For AP staining, an alkaline phosphatase detection kit(Milipore) was used. The medium was removed, 4% paraformaldehyde was added to the cells and they were immobilized for 2 minutes, a Naphthol/Fast Red Violet staining agent was added in a well and reacted at room temperature in a dark space for 20 minutes or more, and then the staining agent was washed with Dulbecco's phosphate buffered saline (DPBS) and the number of stained colonies was verified with a microscope.

[2] = tested on: human dermal fibroblasts introduced with reprogramming genes; assay: Oct4 embryonic stem cell marker expression by immunofluorescence (IF); details: 10 μM peptide for 10 days; compared with cells without peptide and control peptides C1 or C2; FIG. 2
Procedure: Using the same method as in Example 2-1, reprogramming genes were introduced into the cells by an electroporation method in human dermal fibroblasts and divided in a 6-well coated with vitronectin. Thereafter, expression levels of Oct4 as a marker of embryonic stem cells were compared with each other by using an immunofluorescence (IF) method. The cells treated with 10 μM of each peptide for 10 days were fixed with 4% paraformaldehyde for 10 minutes at room temperature, and then 0.5% Triton-X 100 was added and they were cultured for 15 minutes at room temperature to pass through a cell wall and to penetrate into nuclei in the cells, and blocked with a buffer PBS in which 3% bovine serum albumin (BSA) was dissolved for 30 minutes. An Oct4 primary antibody was diluted with a buffer PBS in which 1% BSA was dissolved at a ratio of 1:100 and reacted for 16 hrs at 4° C. and a secondary antibody bound with fluorescein isothiocyanate (FITC) was diluted at a ratio of 1:200 and reacted for 1 hr at room temperature. Finally, a dye (Hoechst 33342, blue) for staining nuclei was treated for 10 minutes at room temperature and washed with a buffer PBS, and colonies with the clearest fluorescent expression in the well were photographed with a confocal scanning microscope (IX 70, Olympus Co., Tokyo, Japan).

[3] = tested on: human dermal fibroblasts introduced with reprogramming genes; assay: Mesenchymal-epithelial transition (MET) by THY1/EPCAM flow cytometry (FACS); details: 10 days of peptide treatment; compared with control peptides C1 or C2; FIG. 3
Procedure: Using the same method as in Example 2-1, reprogramming genes were introduced into the cells by an electroporation method in human dermal fibroblasts and divided in a 6-well coated with Vitronectin. After 10 days of peptide treatment in which the cells were stabilized, the cells were collected in a 15 ml Falcon tube by using a scrapper and then centrifuged for 3 minutes at 1500 rpm. The cells were washed with a buffer (PBS) and then 1.5×10^5 cells were transferred to each tube by using cold PBS. THY1 (cat: sc-59398) and EPCAM (cat: ab20160) antibodies at a concentration of 10 μg/ml were diluted with a 3% BSA/PBS solution in the tube and reacted for 30 minutes at 4° C., and then centrifuged three times for 5 minutes at 1500 rpm. After washing with cold PBS, the cells were transferred to a round tube and analyzed by flow cytometry (FACS). Before measuring samples, a control reference value was fixed using THY1 for human dermal fibroblasts and EPCAM for a human mammary epithelial cell (HMEC).

| Sequence | dedifferentiation induction, graph counting and quantifying the number of colonies [1] | AP-stained colonies [1] | AP staining clarity [1] | Oct4 fluorescence expression (IF) [2] | change of mesenchymal shape of dermal fibroblasts to epithelial shape (THY1/EPCAM, FACS) [3] |
| --- | --- | --- | --- | --- | --- |
| GKCSTRGRKCCRRKK (Functional Peptide P1) [dedifferentiation induction-promoting functional peptide] | more efficiently induced dedifferentiation | more colonies were stained | clearer | more fluorescence was expressed | significantly changed to an epithelial shape |
| GKCSTRGRKCMRRKK (Functional Peptide P2) [peptide P1 with the fifth cysteine of C terminal substituted with methionine] | more efficiently induced dedifferentiation | more colonies were stained | clearer | more fluorescence was expressed | significantly changed to an epithelial shape |
| GKCSTRGRKMCRRKK [Peptide P3] | more efficiently induced dedifferentiation | more colonies were stained | clearer | more fluorescence was expressed | significantly changed to an epithelial shape |
